From patent US10654838B2, “Aminopyridine compounds useful as inhibitors of protein prenylation” (INSTITUT NATIONAL DE LA SANTE ET DE LA RECHERCHE MEDICALE …, priority 2014, dated 2020)

What was measured:
[1] = tested on: prelamin A; assay: Western immunoblotting of prelamin A; type: cell-based, human; settings: HGPS MSCs, optimal concentration
Procedure: Whole-cell lysates of MSC were collected, separated by SDS-PAGE, and transferred onto PVPF membrane by liquid transfer method. Blots were blocked in 10% skim milk (Bio-Rad) in tween 0.1% tris-buffered saline (TTBS) 1× one hour at room temperature. The primary antibodies used were a mouse anti-lamins A/C 1:200 (Millipore, JOL2), a rabbit anti-prelamin A 1/100 (ANTOO45, Diatheva) and a β-actin 1/200000 (Sigma). Membranes were incubated during the night at 4° C. Antigen-antibody binding was detected using horseradish peroxidaseconjugated species-specific secondary antibodies (GE-Healthcare, Little Chalfont, UK) followed by enhanced chemiluminescence Western blotting detection reagents (Perkin-Elmer, Waltham, USA).

[2] = tested on: lamin A and progerin mRNA expression; assay: Quantitative PCR of lamin A and progerin mRNA; type: cell-based, human; settings: HGPS MSCs, 48 h, normalized on DMSO 0.1%
Procedure: Total RNA was isolated using RNeasy Mini extraction kit (Qiagen, Courtaboeuf, France) according to the manufacturer's protocol. An on-col DNase I digestion was performed to avoid genomic DNA amplification. RNA level and quality were checked using the Nanodrop technology. A total of 500 ng of RNA was used for reverse transcription using the Superscript III reverse transcription kit (Invitrogen). Q-PCR analysis was performed using a ABI 7900 system (Applied biosystem) and TaqMan gene expression Master Mix (Roche) following the manufacturer's instructions. Quantification of gene expression was based on the DeltaCt Method and normalized on 18S expression (Assay HS_99999901_S1). PCR primers were previously described by S. Rodriguez and colleagues (Rodriguez S et al., 2009, Eur J Hum Genet, VOL 17(7): 928-37). Primer sequences were lamin A (exons 11/12), 5′-[…]-3′ (SEQ N^o 1) and 5′-AGTTCTGGGGGCTCTGGGT-3′ (SEQ N^o 2); lamin C (exons 9/10), 5′-[…]-3′ (SEQ N^o 3) and 5′-CGGCGGCTACCACTCAC-3′ (SEQ ID N^o 4) and Progerin
(exons 11/12), 5′-ACTGCAGCAGCTCGGGG-3′ (SEQ N^o 5) and 5′-TCTGGGGGCTCTGGGC-3′ (SEQ ID N^o 6).
Taqman MGB probe sequences were lamin A (exon 11), 5′-ACTCGCAGCTACCG-3′ (SEQ N^o 7); lamin C (exon10), 5′-ATGCGCAAGCTGGTG-3′ (SEQ ID N^o 8) and Progerin (exon 11), 5′-CGCTGAGTACAACCT-3′ (SEQ ID N^o 9). […]

[3] = tested on: HDJ2; assay: Western blot analysis of HDJ2 farnesylation; type: cell-based, human
[4] = tested on: HGPS MSCs; assay: Nuclear shape abnormalities (lamin A/C immunostaining); type: cell-based, human; settings: 48 h, lamin A/C staining
Procedure: (§1) In the 4-steps protocol, cells were fixed in 4% paraformaldehyde (15 minutes, room temperature) before permeabilization and blocking in PBS supplemented with 0.1% triton X-100 and 1% BSA (Sigma-Aldrich, St. Louis, USA). Primary antibodies were incubated one hour at room temperature in blocking buffer. Antibodies included mouse anti-lamins A/C (clone JOL2, Millipore, Billerica, USA), rabbit anti-prelamin A (ANTOO45, Diatheva) and anti-Ki67 (clone Ki-S5, MAB4190, Millipore, Billerica, USA). Cells were stained with the species-specific fluorophore-conjugated secondary antibody (Invitrogen) (one hour, room temperature) and nuclei were visualized with Hoechst 33342.

[5] = tested on: HGPS MSCs; assay: Osteogenic differentiation (alkaline phosphatase activity); type: cell-based, human; settings: 7 days of osteogenic differentiation
Procedure: MSC were seeded at 600 cells per well in 384 well plate in MSC culture medium and treated as previously described. After 72 hours, MSC medium was replaced by STEMPRO osteogenic induction medium (Invitrogen) in presence or not of the different drugs. After 7 days of treatment, cells were fixed with ethanol 95% and stained by adding either a colorimetric substrate of the alkaline phosphatase, the 5-Bromo-4-chloro-3-indolyl phosphate/Nitro blue tetrazolium (NBT) (Sigma-Aldrich) or a chromogenic substrate of this enzyme (absorbance at 405 nm), the p-Nitrophenyl Phosphate (pNPP) (Pierce Biotechnology).

[6] = tested on: HGPS MSCs; assay: Cell proliferation (Ki-67 immunostaining); type: cell-based, human; settings: 48 h
Procedure: as §1

[7] = tested on: HGPS MSCs; assay: ATP measurement (CellTiter Glo); type: cell-based, human; settings: 48 h
Procedure: HGPS and control MSC were seeded in a 96 well plates (3917, Corning) (5000 cells/well) and treated with the different drugs. After 48 hours of treatment in unique dose, ATP content was measured using CellTiter Glo® (Promega) accordingly to the manufacturer recommendations. Luminescence was measured with an Analyst GT multimode plate reader (Molecular devices). In parallel, Hoechst 33342 stained nuclei were counted in each well thanks to an automated microscope. The results exploited are given in the ratio between ATP measurement and the number of nuclei counted.

[8] = tested on: HGPS MSCs; assay: Live cell imaging (cell density); type: cell-based, human; settings: 7 days
Procedure: HGPS MSCs were seeded at 2500 cells per well in 96-well plates and cultivated during 7 days in presence of the drugs. Cell density was monitored using an IncuCyte ZOOM microscope (Essen Bioscience). Each value corresponds to the mean of cell densities of four pictures taken in three independent wells.

[9] = molecular target: T1, FPPS (Homo sapiens, UniProt P14324); assay: Surface plasmon resonance on immobilized FPPS; type: binding
T1 sequence (P14324 1-419): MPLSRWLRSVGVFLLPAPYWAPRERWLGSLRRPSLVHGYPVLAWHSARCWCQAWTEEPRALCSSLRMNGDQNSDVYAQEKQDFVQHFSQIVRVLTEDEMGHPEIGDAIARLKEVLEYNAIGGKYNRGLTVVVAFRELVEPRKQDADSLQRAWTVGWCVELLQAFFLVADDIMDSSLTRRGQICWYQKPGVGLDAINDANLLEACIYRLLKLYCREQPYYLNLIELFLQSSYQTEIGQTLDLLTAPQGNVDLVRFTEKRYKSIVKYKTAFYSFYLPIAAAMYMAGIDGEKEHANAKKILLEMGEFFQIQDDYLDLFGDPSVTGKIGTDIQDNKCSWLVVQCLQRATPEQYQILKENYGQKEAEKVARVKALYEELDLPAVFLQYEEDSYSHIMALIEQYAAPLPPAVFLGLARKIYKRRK
Procedure: Surface plasmon resonance (SPR) was measured using a BIAcore 3000 instrument at 25° C. FPPS (2800 RU) was immobilized on flow cells of a CM5-chip. The running buffer was HBSEP pH 7.4 (20 mM Hepes, 150 mM NaCl, and 0.005% P20). Regeneration was performed with 10 mM glycine, pH 3.0. […] Data were evaluated using Scrubber2 (Biologic software) and BIAeval software (BIAcore).

[10] = molecular target: T2, FT (Homo sapiens, UniProt P49354+P49356); assay: FT activity assay (Farnesyltransferase [3H] SPA); type: biochemical; settings: concentration inducing 50% of the maximum inhibiting effect of the compound
T2 construct: Reactions were started by adding 40 μL of treated or untreated cell lysate; endogenous in cells; host or cells: HGPS MSCs (cell lysate)
Procedure: (§2) Cell pellet of HGPS MSCs were resuspended in 25 mM Tris-HCl pH 7.4, 1 mM DTT, 1 mM MgCl2, 1 EDTA, 1 mM PMSF and centrifuged at 10,000×g for 10 min at 4° C. Protein content was determined using Lowry's method. Aliquots of cell lysate containing 100 μg of total proteins were incubated with tested substances at 37° C. for 30 min.
FT activity was determined by Famesyltransferase [3H] SPA enzyme assay (Amersham Life Science, Buckinghamshire, England). Briefly, FT activity was assayed in 20 μl of assay buffer containing 50 mmol/L Hepes, 30 mmol/L MgCl2, 20 mmol/L KCl and 5 mmol/L dithiothreitol, 20 μl of [3H]-FPP (12 pmol) and 20 μl of biotin lamin B. Reactions were started by adding 40 μL of treated or untreated cell lysate and incubated for 1 hour at 37° C. Reactions were stopped by the addition of 150 μL of stop reagent containing SPA bead and counted in a scintillation counter. FT activity was expressed as pmoles of incorporated [3H]-FPP into biotin lamin-B peptide per minute per milligram of total proteins (pmol/min/mg prot). Parallel samples were assayed to evaluate the total and the nonspecific radioactivity. In all experiments enzyme assays were carried out in triplicate.

[11] = molecular target: T3, HMGCR (Homo sapiens, UniProt P04035); assay: HMGCR colorimetric activity assay; type: biochemical
T3 construct: oxidation of NADPH by the catalytic subunit of HMGCR in the presence of the substrate HMG CoA; purchased Sigma-Aldrich
T3 sequence (P04035 340-888 limits assumed): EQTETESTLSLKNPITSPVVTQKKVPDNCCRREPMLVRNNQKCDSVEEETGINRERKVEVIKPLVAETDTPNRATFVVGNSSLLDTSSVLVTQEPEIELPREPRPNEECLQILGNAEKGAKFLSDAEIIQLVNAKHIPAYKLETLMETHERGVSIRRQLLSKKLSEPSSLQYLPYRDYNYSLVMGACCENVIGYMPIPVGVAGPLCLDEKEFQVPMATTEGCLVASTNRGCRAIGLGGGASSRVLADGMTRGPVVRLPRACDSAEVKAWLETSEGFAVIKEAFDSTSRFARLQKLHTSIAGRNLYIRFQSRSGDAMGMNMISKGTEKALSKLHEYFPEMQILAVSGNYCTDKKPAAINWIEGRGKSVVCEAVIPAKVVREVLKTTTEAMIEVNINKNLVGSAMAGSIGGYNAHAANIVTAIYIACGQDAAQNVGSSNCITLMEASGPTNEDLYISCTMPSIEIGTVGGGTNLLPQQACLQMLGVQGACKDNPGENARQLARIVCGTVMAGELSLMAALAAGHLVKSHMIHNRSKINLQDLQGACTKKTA
Procedure: HMGCR activity was measured using GCoA Reductase Assay Kit (Sigma-Aldrich) according to the manufacturer's protocol. The assay is based on the spectrophotometric measurement of the decrease in absorbance at 340 nm, which represents the oxidation of NADPH by the catalytic subunit of HMGCR in the presence of the substrate HMG CoA.

[12] = molecular target: T1, FPPS; assay: FPPS activity assay; type: biochemical; design: endogenous in cells; host or cells: HGPS MSCs (cell lysate); settings: concentration inducing 50% of the maximum inhibiting effect of the compound
Procedure: as §2
FPPS assay was carried out with some modifications of the procedure of Krisans et al. (Krisans et al., 1994, The Journal of biological chemistry VOL. 269: 14165-14169) and described by Gupta et al. (Gupta et al., 1999, Eur J Med Chem, VOL. 43: 2751-2767). Briefly, FPPS was assayed in 150 μL containing 25 mmol/L Hepes, pH=7, 2 mmol/L MgCl2, 1 mmol/L dithiothreitol, 5 mmol/L KF, 1% A noctyl-β-glucopyranoside, 3.3 μmol/L [4-14C] IPP (18 Ci/mmol), 3 μmol/L unlabeled IPP and 20 μmol/L geranyl diphosphate. Reactions were started by adding 40 μL of treated or untreated cell lysate and incubated for 45 min at 37° C. Reactions were stopped by the addition of 150 μL 2.5 mol/L HCl in 80% ethanol containing 100 μg/mL farnesol as a carrier. The samples were hydrolyzed for 30 min at 37° C. to convert the FPP to farnesol and neutralized by the addition of 150 μL of 10% NaOH. The reaction product (farnesol) was extracted into 1 mL of N-hexane and an aliquot (200 μL) of the organic phase was used for radioactivity counting. Parallel samples were assayed to evaluate the total and the nonspecific radioactivity. In all experiments, enzyme assays were carried out in triplicate.

Row | Structure (SMILES) | prelamin A level (Western blot) [1] | lamin A and progerin mRNA expression [2] | unfarnesylated form of HDJ2 [3] | rescue of nuclear shape abnormalities [4] | rescue of premature osteogenic differentiation (alkaline phosphatase activity) [5] | number of Ki-67 positive cells [6] | ATP content (energetic metabolism) [7] | cytostatic effect in long term live imaging cultures [8] | direct interaction with FPPS (SPR), in words [9] | Ka (1/M), association constant ([9]; SPR, BIAcore 3000, 25° C.) | Kd ([9]; SPR, BIAcore 3000, 25° C., read-out: Kd (M), equilibrium dissociation constant) | IC50 [10] | IC50 (μM) HMGCR [11] | IC50 [12]
1 | Cc1cccc(N(C)c2cc(N3CCN(C(=O)Cc4c(-c5ccccc5)[nH]c5ccccc45)CC3)ncn2)c1 [Di-AP1, 1-{4-[6-(Methyl-m-tolyl-amino)-pyrimidin-4-yl]-piperazin-1-yl}-2-(2-phenyl-1H-indol-3-yl)-ethanone] | increased | increased | increase of the unfarnesylated form of the protein | not efficient | not significantly different to those observed following FTI treatment | up to 65% | increased ATP content |  |  |  |  |  |  | 
2 | N#CC(c1ccncc1)c1cc(N2CCN(C(=O)c3cccs3)CC2)ncn1 (centres unmarked) [Mono-AP2, Pyridin-4-yl-{6-[4-(thiophene-2-carbonyl)-piperazin-1-yl]-pyrimidin-4-yl}-acetonitrile] | increased |  | increase of the unfarnesylated form of the protein | restoring HGPS MSCs nuclear shape defects at levels not significantly different from the FTI tipifarnib |  |  |  | less cytostatic than the FTI tipifarnib | confirmed the direct interactions | 5040 M⁻¹ | 0.0002 M | 9.32 µM | No inhibition | 1.82 µM
